How the values were obtained:
soybean [1] = experiment: Test A postemergence; type: in vivo, Glycine max; settings: postemergence, 10 days
Procedure, shortened: (§1)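 Seeds in loam–sand blend received a directed preemergence soil spray of compound in non-phytotoxic solvent with surfactant; postemergence plants (2–10 cm, one- to two-leaf stage) were sprayed with the same formulation. After 10 days in greenhouse, injury was rated visually versus untreated controls, 0 (no effect) to 100 (complete control).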

goosegrass [2] = experiment: Test A preemergence; type: in vivo, Eleusine indica
Procedure, shortened: as §1

ragweed [3] = experiment: Test A preemergence; type: in vivo, Ambrosia artemisiifolia
Procedure, shortened: as §1

blackgrass [4] = experiment: Test A postemergence; type: in vivo, Alopecurus myosuroides; settings: postemergence, 10 days
Procedure, shortened: as §1

soybean [5] = experiment: Test A preemergence; type: in vivo, Glycine max
Procedure, shortened: as §1

goosegrass [6] = experiment: Test A postemergence; type: in vivo, Eleusine indica; settings: postemergence, 10 days
Procedure, shortened: as §1

oat, wild [7] = experiment: Test A postemergence; type: in vivo, Avena fatua; settings: postemergence, 10 days
Procedure, shortened: as §1

ragweed [8] = experiment: Test A postemergence; type: in vivo, Ambrosia artemisiifolia; settings: postemergence, 10 days
Procedure, shortened: as §1

pigweed, palmer [9] = experiment: Test A postemergence; type: in vivo, Amaranthus palmeri; settings: postemergence, 10 days
Procedure, shortened: as §1

barnyardgrass = experiment: Test B flooded paddy test; type: in vivo, Echinochloa crus-galli; settings: 250 g ai/ha, Flood, 13 days, 0 to 100 scale (0 no effect, 100 complete control)
Procedure, shortened: (§2)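 Visual scores from 0 (no effect) to 100 (complete kill) were assigned 13 days after treatment by comparison with controls. Seedlings had been treated at two leaves by adding compound to floodwater standing 3 cm deep, kept at that level in the greenhouse.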

corn [10] = experiment: Test A preemergence; type: in vivo, Zea mays
Procedure, shortened: as §1

rice = experiment: Test B flooded paddy test; type: in vivo, Oryza sativa; settings: 250 g ai/ha, Flood, 13 days, 0 to 100 scale (0 no effect, 100 complete control)
Procedure, shortened: as §2

galium = experiment: Test A postemergence; type: in vivo, Galium aparine; settings: postemergence, 10 days
Procedure, shortened: as §1

kochia [11] = experiment: Test A preemergence; type: in vivo, Bassia scoparia
Procedure, shortened: as §1

oat, wild [12] = experiment: Test A preemergence; type: in vivo, Avena fatua
Procedure, shortened: as §1

sedge, umbrella = experiment: Test B flooded paddy test; type: in vivo, Cyperus difformis; settings: 250 g ai/ha, Flood, 13 days, 0 to 100 scale (0 no effect, 100 complete control)
Procedure, shortened: as §2

blackgrass [13] = experiment: Test A preemergence; type: in vivo, Alopecurus myosuroides
Procedure, shortened: as §1

pigweed, palmer [14] = experiment: Test A preemergence; type: in vivo, Amaranthus palmeri
Procedure, shortened: as §1

corn [15] = experiment: Test A postemergence; type: in vivo, Zea mays; settings: postemergence, 10 days
Procedure, shortened: as §1

wheat [16] = experiment: Test A preemergence; type: in vivo, Triticum aestivum
Procedure, shortened: as §1

ducksalad = experiment: Test B flooded paddy test; type: in vivo, Heteranthera limosa; settings: 250 g ai/ha, Flood, 13 days, 0 to 100 scale (0 no effect, 100 complete control)
Procedure, shortened: as §2

horseweed = experiment: Test A postemergence; type: in vivo, Erigeron canadensis; settings: postemergence, 10 days
Procedure, shortened: as §1

kochia [17] = experiment: Test A postemergence; type: in vivo, Bassia scoparia; settings: postemergence, 10 days
Procedure, shortened: as §1

ryegrass, Italian [18] = experiment: Test A preemergence; type: in vivo, Lolium multiflorum
Procedure, shortened: as §1

wheat [19] = experiment: Test A postemergence; type: in vivo, Triticum aestivum; settings: postemergence, 10 days
Procedure, shortened: as §1

foxtail, giant [20] = experiment: Test A preemergence; type: in vivo, Setaria faberi
Procedure, shortened: as §1

foxtail, giant [21] = experiment: Test A postemergence; type: in vivo, Setaria faberi; settings: postemergence, 10 days
Procedure, shortened: as §1

ryegrass, Italian [22] = experiment: Test A postemergence; type: in vivo, Lolium multiflorum; settings: postemergence, 10 days
Procedure, shortened: as §1

[23] = 125 g ai/ha, 0 to 100 scale, 0 no effect, 100 complete control
[24] = 500 g ai/ha, visual injury, 0 to 100 scale (0 no effect, 100 complete control)
[25] = 125 g ai/ha, visual injury after 10 days, 0 to 100 scale, 0 is no effect, 100 is complete control
[26] = 500 g ai/ha, 0 to 100 scale (0 no effect, 100 complete control), 10 days

For `CC(C)c1ncn(-c2ccc(O)c(C(=O)N3C[C@H](C)Oc4c(Cl)cccc43)c2)n1` [Compound 105], the “Soybean plant response rating” value (soybean [1]; [23]) was 70, the “Plant response rating, Soybean” value (soybean [1]; [24]) was 100 and the “Plant response rating, Goosegrass” value (goosegrass [2]; [25]) was 60. For the same compound, the “Plant response rating, Goosegrass” value (goosegrass [2]; [26]) was 100, the “Plant response rating, Ragweed” value (ragweed [3]; [25]) was 0 and the “Plant response rating, Ragweed” value (ragweed [3]; [26]) was 0. The “Blackgrass plant response rating” value (blackgrass [4]; [23]) was 30, the “Plant response rating, Blackgrass” value (blackgrass [4]; [24]) was 30 and the “Plant response rating, Soybean” value (soybean [5]; [25]) was 0. The “Plant response rating, Soybean” value (soybean [5]; [26]) was 0, the “Goosegrass plant response rating” value (goosegrass [6]; [23]) was 0 and the “Plant response rating, Goosegrass” value (goosegrass [6]; [24]) was 50. For the same compound, the “Oat, Wild plant response rating” value (oat, wild [7]; [23]) was 70, the “Plant response rating, Oat, Wild” value (oat, wild [7]; [24]) was 70 and the “Ragweed plant response rating” value (ragweed [8]; [23]) was 0. For the same compound, the “Plant response rating, Ragweed” value (ragweed [8]; [24]) was 0, the “Pigweed, Palmer plant response rating” value (pigweed, palmer [9]; [23]) was 40 and the “Plant response rating, Pigweed, Palmer” value (pigweed, palmer [9]; [24]) was 60. For the same compound, the “Plant response rating, Barnyardgrass” value (barnyardgrass) was 0, the “Plant response rating, Corn” value (corn [10]; [25]) was 0 and the “Plant response rating, Corn” value (corn [10]; [26]) was 0. For the same compound, the “Plant response rating, Rice” value (rice) was 0, the “Galium plant response rating” value (galium; [23]) was 60 and the “Plant response rating, Galium” value (galium; [24]) was 70. The “Plant response rating, Kochia” value (kochia [11]; [25]) was 50, the “Plant response rating, Kochia” value (kochia [11]; [26]) was 90 and the “Plant response rating, Oat, Wild” value (oat, wild [12]; [25]) was 70. For the same compound, the “Plant response rating, Oat, Wild” value (oat, wild [12]; [26]) was 70, the “Plant response rating, Sedge, Umbrella” value (sedge, umbrella) was 0 and the “Plant response rating, Blackgrass” value (blackgrass [13]; [25]) was 10. For the same compound, the “Plant response rating, Blackgrass” value (blackgrass [13]; [26]) was 20, the “Plant response rating, Pigweed, Palmer” value (pigweed, palmer [14]; [25]) was 30 and the “Plant response rating, Pigweed, Palmer” value (pigweed, palmer [14]; [26]) was 90. For the same compound, the “Corn plant response rating” value (corn [15]; [23]) was 20, the “Plant response rating, Corn” value (corn [15]; [24]) was 50 and the “Plant response rating, Wheat” value (wheat [16]; [25]) was 0. For the same compound, the “Plant response rating, Wheat” value (wheat [16]; [26]) was 10, the “Plant response rating, Ducksalad” value (ducksalad) was 0 and the “Horseweed plant response rating” value (horseweed; [23]) was 0. The “Plant response rating, Horseweed” value (horseweed; [24]) was 0, the “Kochia plant response rating” value (kochia [17]; [23]) was 90 and the “Plant response rating, Kochia” value (kochia [17]; [24]) was 90. The “Plant response rating, Ryegrass, Italian” value (ryegrass, Italian [18]; [25]) was 40, the “Plant response rating, Ryegrass, Italian” value (ryegrass, Italian [18]; [26]) was 80 and the “Wheat plant response rating” value (wheat [19]; [23]) was 0. The “Plant response rating, Wheat” value (wheat [19]; [24]) was 10, the “Plant response rating, Foxtail, Giant” value (foxtail, giant [20]; [25]) was 70 and the “Plant response rating, Foxtail, Giant” value (foxtail, giant [20]; [26]) was 100. The “Foxtail, Giant plant response rating” value (foxtail, giant [21]; [23]) was 20, the “Plant response rating, Foxtail, Giant” value (foxtail, giant [21]; [24]) was 80 and the “Ryegrass, Italian plant response rating” value (ryegrass, Italian [22]; [23]) was 0. For the same compound, the “Plant response rating, Ryegrass, Italian” value (ryegrass, Italian [22]; [24]) was 20.

Source: patent US20260262643A1, “HERBICIDAL BENZOXAZINES” (FMC CORPORATION, priority 2022, published 2026)
